The record followed here is patent US8450283B2, “Composition for treating cancer and use thereof” (National Taiwan University, priority 2008, dated 2013).

“Also recorded” adds a separate entry of the source. Where a SMILES comes first, the peptide text is derived from it. Bridges are numbered along the chain shown (N, C = ends).

The test system of data set [1] is CL1-5 cells. The experiment in a line: Cytotoxicity / cell viability of peptide-treated cancer cells. The conditions noted are these: peptide treatment of cancer cells. Type of data set: cell-based, human.
Data set [2] deals with T1, NRP1 (Homo sapiens, UniProt O14786).
T1 construct: Recombinant soluble NRP1 (sNRP1) protein containing His6 and c-Myc domain tags was synthesized in NIH-3T3 murine fibroblast cells; His6; c-Myc; made in house; host or cells: NIH-3T3 fibroblast cells, secreted into medium, purified on Ni-NTA
T1 sequence (O14786 22-644 isoform O14786-2 limits assumed): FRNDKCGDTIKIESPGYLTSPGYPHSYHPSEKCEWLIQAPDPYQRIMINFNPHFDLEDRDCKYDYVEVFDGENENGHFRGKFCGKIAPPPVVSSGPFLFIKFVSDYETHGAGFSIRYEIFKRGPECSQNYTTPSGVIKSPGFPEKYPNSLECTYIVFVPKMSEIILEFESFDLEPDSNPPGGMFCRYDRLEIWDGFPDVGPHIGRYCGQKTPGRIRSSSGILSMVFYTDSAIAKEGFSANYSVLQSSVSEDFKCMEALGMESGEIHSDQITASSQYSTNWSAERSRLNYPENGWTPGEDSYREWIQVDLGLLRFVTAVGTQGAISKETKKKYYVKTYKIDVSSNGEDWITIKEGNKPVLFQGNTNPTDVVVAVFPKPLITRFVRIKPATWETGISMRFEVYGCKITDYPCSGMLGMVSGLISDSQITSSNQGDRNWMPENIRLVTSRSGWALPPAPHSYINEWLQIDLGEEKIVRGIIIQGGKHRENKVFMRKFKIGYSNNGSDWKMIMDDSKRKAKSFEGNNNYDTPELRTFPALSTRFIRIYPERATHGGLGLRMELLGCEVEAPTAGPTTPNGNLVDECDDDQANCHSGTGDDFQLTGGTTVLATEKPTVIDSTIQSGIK
The experiment in a line: Surface plasmon resonance (Biacore) binding of selected peptides to NRP1. To be noted: 25° C., immobilized recombinant NRP1, read-out: ka. On the procedure:
(§1) The binding kinetics of selected peptides with NRP1 were tested using the surface plasmon resonance based measuring system (Biacore AB) at 25° C. Recombinant NRP1 was immobilized on CM5 sensor chips by amine coupling at 400 response units using the amine coupling kit (Biacore) according to the manufacturer's instructions. Binding was detected in resonance units after injecting various concentrations of peptide at a flow rate of 30 μL/min. Sensograms of association and dissociation were recorded and analyzed using BIAevaluation software 3.0 (Biacore AB).
In general terms: In SPR one partner is held on a chip, and binding of the other changes the refractive index at the surface.

Data set [3] concerns NRP1. The experiment in a line: NRP1 expression after siRNA transfection (Western blot). The data set is classed as cell-based, human. To be noted: CL1-5 cells transfected with siRNA.
Data set [4] relates to CL1-5 cells. The experiment in a line: In vitro invasion assay (modified Boyden chamber, Matrigel). The data set is classed as cell-based, human. The conditions noted are these: 48 h, Matrigel-coated Transwell. On the procedure:
A modified Boyden chamber system was used to investigate the invasive capability of CL cells treated with selected peptides, sNRP1, and siRNA of NRP1 (Chu Y W, et al., Am J Respir Cell Mol Biol 1997, 17: 353-360). The polycarbonate membranes (containing 8-μm pores) of Transwell inserts were coated with Matrigel. The cells were suspended in RPMI 1640 containing 10% NuSerum (Life Science), and 2.5×10^4 cells were placed into the upper well of each chamber. After incubation for 48 h at 37° C., the Transwell membrane was fixed with methanol for 10 min at room temperature and stained with a 50 μg/mL solution of propidium iodide (Sigma) for 30 min at room temperature. The number of cells in each membrane was counted under a microscope at a magnification of ×50 using the Analytical Imaging Station software package (Imaging Research Inc.). Each sample was assayed in triplicate.

The test system of data set [5] is CL1-5 cells. Briefly: Scratch wound healing migration assay. Type of data set: cell-based, human. To be noted: 24 h after scratch, 24 nmol/L siRNA. On the procedure:
Cell migration was measured by the in vitro scratch wound healing assay (Tamura M, et al., Science 1998, 280: 1614-1617). CL1-5 cells were transfected with 24 nmol/L siRNA-1 in 12-well plates. Twenty-four hours after transfection, cells were scratched with a yellow pipette tip and photographed 18, 21, and 24 h after the scratch. The cell migration at 0, 18, 21, and 24 h was evaluated by counting cells that had migrated from the wound edge.

For data set [6], the system named is PI3K. Briefly: Phosphoinositide-3-kinase activity assay in CL1-5 cells. The data set is classed as cell-based, human. To be noted: 48 h after transfection, 1.3 nmol/L VEGF165, vs nonsilencing siRNA. On the procedure:
Phosphoinositide-3-kinase (PI3K) activities were assayed as described previously (Lin M T, et al., J Biol Chem 2001, 276: 48997-49002) with some modifications. In brief, CL1-5 cell extracts were incubated with the antiphosphotyrosine antibody and then precipitated with protein A-Sepharose. The immunocomplexes were preincubated with phosphatidylinositol-4,5-P2 (Sigma), and the kinase reaction was initiated by adding 10 μCi of [γ-^32P]ATP in reaction buffer for 15 min. Phospholipids were separated by TLC and visualized by phosphorimaging.

Data set [7] concerns CL1-5 cells. The experiment in a line: Filamentous actin staining (rhodamine-phalloidin). The data set is classed as cell-based, human. On the procedure:
For filamentous actin (F-actin) staining, cells were seeded on coverslips in 24-well plates and allowed to attach for 24 h in medium containing 10% FCS. The cells were fixed, washed, and permeabilized in 0.1% Triton-X. The cells were incubated for 30 min with 5 units/mL of rhodamine-conjugated phalloidin (Molecular Probe) and mounted using Fluor Save reagent (Calbiochem). The slides were analyzed using a Zeiss Axioplan 2 microscope.

In data set [8] the target is T2, human VEGF165 (Homo sapiens, UniProt P15692).
T2 construct: purchased PeproTech, Inc
T2 sequence (P15692 27-191 isoform P15692-4): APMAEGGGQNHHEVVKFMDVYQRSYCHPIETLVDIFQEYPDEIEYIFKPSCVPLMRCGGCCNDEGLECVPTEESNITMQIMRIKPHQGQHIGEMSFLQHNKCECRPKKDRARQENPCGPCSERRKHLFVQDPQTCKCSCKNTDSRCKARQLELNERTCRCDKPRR
Briefly: Surface plasmon resonance binding of recombinant sNRP1 to VEGF165. To be noted: read-out: average dissociation constant (KD) of human VEGF165 binding to sNRP1. How it is done:
as §1

In data set [9] the test system is Akt. Briefly: VEGF165-induced Akt phosphorylation in CL1-5 cells (Western blot). The conditions noted are these: 1.3 nmol/L VEGF165, 10 nmol/L sNRP1. Type of data set: cell-based, human. In general terms: In western blotting, separated proteins are transferred to a membrane and probed.
Data set [10] relates to VEGFR2. The experiment in a line: VEGF165-induced VEGFR2 phosphorylation in CL1-5 cells (immunoprecipitation / Western blot). The data set is classed as cell-based, human. How it is done:
VEGFR2 phosphorylation was assessed as previously described (Soker S, et al., J Cell Biochem 2002, 85:357-368). Briefly, CL1-5 cells were treated with a mixture of hVEGF and sNRP1 for 30 min on ice and then at 37° C. for 7 min. Cell lysates were immunoprecipitated with anti-VEGFR2 antibodies. For Western blotting, the membranes were first probed with anti-Flk-1 antibodies and then reprobed with anti-phospho-VEGFR2 antibodies 2/3(pc460) after being stripped with deblotting buffer. In the antiangiogenesis assay, HUVECs were pretreated with peptides for 10 min followed by treatment with VEGF for 5 min, and the cells were then immediately extracted with lysis buffer. Activation of Flk-1/KDR was determined by immunoblotting cell extracts with anti-Flk-1 antibodies and then reprobing with anti-phospho-VEGFR2 antibodies (pTyr^1214) after the membranes had been stripped with deblotting buffer.

In the case of `CSCC[C@@H]1NC(=O)[C@H](CCCNC(=N)N)NC(=O)[C@@H]2CCCN2C(=O)[C@H](CCCNC(=N)N)NC(=O)[C@H](CCCNC(=N)N)NC(=O)[C@@H](N)CSSC[C@@H](C(=O)O)NC(=O)[C@H]([C@@H](C)O)NC(=O)[C@H](CC(C)C)NC1=O` [DG1, CRRPRMLTC] (H-CRRPRMLTC-OH; disulfide 1-9; N-terminus and C-terminus assumed), the “cytotoxicity / cell viability” value in [1] is reported as “without affecting cell viability; also recorded: not cytotoxic”. Moreover, the kon in [2] worked out at 1230 M⁻¹ s⁻¹.
As for `CC[C@H](C)[C@@H]1NC(=O)[C@H](CCCNC(=N)N)NC(=O)[C@H](CCCNC(=N)N)NC(=O)[C@H](CO)NC(=O)[C@H](CCCNC(=N)N)NC(=O)[C@@H](N)CSSC[C@@H](C(=O)O)NC(=O)[C@H](CC(C)C)NC(=O)[C@H](CCCNC(=N)N)NC1=O` [DG2, CRSRRIRLC] (H-CRSRRIRLC-OH; disulfide 1-9; N-terminus and C-terminus assumed), the “cytotoxicity / cell viability” value in data set [1] is “not cytotoxic”. The kon in data set [2] was determined as 123 ± 24 M⁻¹ s⁻¹.
Turning to AACACCTAGTGGAGTGATAAA [siRNA-1], the NRP1 expression entry in [3] is given as “Significant suppression”. The “invasion ability of CL1-5 cells (in words)” value (shortened to “invasion ability”) in [4] is recorded as “decreased the invasion ability of CL1-5 cells in a dose-dependent manner”. In addition, the “migration of CL1-5 cells” value in [5] was “significantly inhibited”. The “VEGF165-induced PI3K activation” value in data set [6] is on record as “decreased”.
With AACAGCCTTGAATGCACTTAT [siRNA-2], the NRP1 expression result in [3] is given as “Significant suppression”. Also, the “invasion ability” value in data set [4] is “decreased the invasion ability of CL1-5 cells in a dose-dependent manner”.
By Kd is commonly meant the constant that tells how readily two partners part at equilibrium. As to “sNRP1: Recombinant soluble NRP1 protein containing His6 and c-Myc domain tags, synthesized in NIH-3T3 cells”, in data set [7], the “F-actin polymerization and filopodia formation” value was “inhibited F-actin polymerization and filopodia formation”. Moreover, the Kd in data set [8] turned out to be 125 nM. Besides, the “VEGF165-induced phosphorylation of Akt at Ser473” value in data set [9] is on record as “decreased to less than one third”. The “invasion ability” value in data set [4] is recorded as “dose-dependent decrease”. Further, the “VEGF165-induced VEGFR2 activation” value in [10] (VEGF165 plus sNRP1) is “decreased by sNRP1 in a dose-dependent manner”; in data set [10] (high concentrations of sNRP1), “totally blocked”.
